Experiments:
[1] = Acute toxicity (LD50, Behrens-Karber method); type: in vivo, ICR mice; details: ip, mortality during 30 days; for LD50 at 720 h: mouse, in vivo; for LD50: 43200 min
Experimental: Test compounds, dissolved or suspended in 0.5% aqueous CMC, were each intraperitoneally administered to ICR mice in a dose of 0.1 ml per 10 g body weight. LD50 (mg/kg) value of each test compound was calculated from the mortality of mice during 30 days by the Behrens-Karber method.

[2] = test system: Leukemia L1210; test: Activity against Leukemia L1210, intraperitoneal, increase in life span of mice; type: in vivo, female mice (BDF1 family); details: for ED (maximum ILS) / ED30: Mus musculus, L1210, ip; for ED (maximum ILS) / ED30 / O.D. (optimum dosage) / ILS30: ip once a day for 5 successive days; for ED (maximum ILS) / O.D. (optimum dosage): daily dosage giving maximum increase of life span; for ED (maximum ILS): read-out: O.D. (optimum dosage); for ED30 / ILS30: daily dosage increasing average survival days by 30%; for ED30: read-out: ILS30; for Survivors after 60 days / Max. ILS % / Therapeutic ratio TR: ip; for Survivors after 60 days: 6-membered group; for Max. ILS %: 60-day observation, versus control; for Therapeutic ratio TR: O.D./ILS30
Method in brief: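 Dosing started 24 h after ip implantation of 1×10^5 L1210 cells into groups of 6 female BDF1 mice, by ip or oral route daily for 5 consecutive days. Survival was followed for 60 days; increase in life span was scored against untreated mice, with therapeutic ratio from optimum dose over ILS30 dose.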

| SMILES | LD50 at 720 h [1] [mg/kg] | ED (maximum ILS) [2] [mg/kg] | ED30 [2] [mg/kg] | Survivors after 60 days [2] | Max. ILS % [2] [%] | Therapeutic ratio TR [2] | LD50 [1] [mg/kg] | O.D. (optimum dosage) [2] [mg/kg] | ILS30 [2] [mg/kg] |
| --- | --- | --- | --- | --- | --- | --- | --- | --- | --- |
| CCCCO[C@H]1O[C@H](CO)[C@H](O)[C@H](O)[C@H]1N(CCC)C(=O)N(CCCl)N=O [Compound 119, 3-n-propyl-3-(n-butyl α-D-galactopyranose-2-yl)-1-(2-chloroethyl)-1-nitrosourea] | 600 | 200 | 5.95 | 3/6 | > 360 | 33.6 |  |  |  |
| CCC(C)O[C@H]1O[C@H](CN(CCC(C)(C)C)C(=O)N(CCCl)N=O)[C@@H](O)[C@H](O)[C@H]1O (stereo partly drawn) [Compound 190, 3-(3,3-dimethyl-n-butyl)-3-(sec-butyl α-D-glucopyranose-6-yl)-1-(2-chloroethyl)-1-nitrosourea] | 470 | 150 | 3.12 | 6/6 | > 700 | 48.1 |  |  |  |
| CCC(C)O[C@H]1O[C@H](CO)[C@@H](O)[C@H](O)[C@H]1N(CC(C)C)C(=O)N(CCCl)N=O (stereo partly drawn) [Compound 59, 3-isobutyl-3-(sec-butyl α-D-glucopyranose-2-yl)-1-(2-chloroethyl)-1-nitrosourea] | 605 | 200 | 5.8 | 3/6 | > 348 | 34.5 |  |  |  |
| COCC(C)O[C@H]1O[C@H](CN(CC(C)C)C(=O)N(CCCl)N=O)[C@@H](O)[C@@H](O)[C@@H]1O (stereo partly drawn) [Compound 144, 3-isobutyl-3-(1-methyl-2-methoxyethyl α-D-altropyranose-6-yl)-1-(2-chloroethyl)-1-nitrosourea] | 580 | 160 | 2.8 | 6/6 | > 700 | 57.1 |  |  |  |
| CC(C)CN(C(=O)N(CCCl)N=O)[C@@H]1[C@@H](O)[C@@H](OC2CCCCC2)OC[C@H]1O [Compound 150, 3-isobutyl-3-(cyclohexyl α-D-xylopyranose-3-yl)-1-(2-chloroethyl)-1-nitrosourea] | 505 | 150 | 3.12 | 4/6 | > 420 | 48.1 |  |  |  |
| CC(C)CO[C@H]1O[C@H](CN(CC(C)C)C(=O)N(CCCl)N=O)[C@H](O)[C@H](O)[C@H]1O [Compound 107, 3-isobutyl-3-(isobutyl α-D-galactopyranose-6-yl)-1-(2-chloroethyl)-1-nitrosourea] | 650 | 200 | 5.87 | 3/6 | > 360 | 34.1 |  |  |  |
| CO[C@H]1O[C@H](CNC(=O)N(CCCl)N=O)[C@@H](O)[C@H](O)[C@H]1O [Compound 6MCαGM, 3-(methyl α-D-glucopyranose-6-yl)-1-(2-chloroethyl)-1-nitrosourea, reference compound] |  |  |  | 4/6 | > 450 | 20.1 | 88 | 29.1 | 1.45 |
| C=C(C)CN(C(=O)N(CCCl)N=O)[C@H]1[C@@H](OCCCC)O[C@H](CO)[C@@H](O)[C@@H]1O [Compound 56, 3-(2-methyl-2-propenyl)-3-(n-butyl α-D-glucopyranose-2-yl)-1-(2-chloroethyl)-1-nitrosourea] | 460 | 170 | 5.38 | 3/6 | > 360 | 31.6 |  |  |  |
| COCC(C)N(C[C@H]1O[C@H](OCCc2ccccc2)[C@@H](O)[C@H](O)[C@@H]1O)C(=O)N(CCCl)N=O (stereo partly drawn) [Compound 141, 3-(1-methyl-2-methoxyethyl)-3-(phenyl-β-ethyl α-D-altropyranose-6-yl)-1-(2-chloroethyl)-1-nitrosourea] | 480 | 160 | 4.4 | 3/6 | > 360 | 36.4 |  |  |  |
| CCCCN(C[C@H]1O[C@H](OC)[C@H](O)[C@@H](O)[C@@H]1O)C(=O)N(CCCl)N=O [Compound 6MCαGB, 3-n-butyl-3-(methyl α-D-glucopyranose-6-yl)-1-(2-chloroethyl)-1-nitrosourea, reference compound] | 92 | 30 | 1.34 | 4/6 | > 440 | 22.4 |  |  |  |
| CCC(COC)O[C@H]1O[C@H](CN(CC(C)(C)C)C(=O)N(CCCl)N=O)[C@@H](O)[C@H](O)[C@H]1O (stereo partly drawn) [Compound 196, 3-neopentyl-3-(1-methoxy-sec-butyl α-D-glucopyranose-6-yl)-1-(2-chloroethyl)-1-nitrosourea] |  |  |  | 6/6 | > 700 | 63.4 | 560 | 160 | 2.52 |

Reference: patent US4593090A, “Novel nitrosourea compounds, method for preparing same, and pharmaceutical composition containing same” (Gogo Kimura, priority 1981, dated 1986)
